Source: the kinase profiling compilation of Christmann-Franck et al. (2016)
pKd: −log10 of the molar value.

Columns and labels:
Assay in all cases: KINOMEscan competition binding
[1] = test system: RET (human), P07949 [V804L]; settings: compound 1.0 µM
[2] = molecular target: MAP3K11 (human) (UniProt Q16584); settings: compound 1.0 µM
[3] = molecular target: VRK2 (human) (UniProt Q86Y07); settings: compound 1.0 µM
[4] = molecular target: PAK6 (human) (UniProt Q9NQU5); settings: compound 1.0 µM
[5] = test system: PIK3CA (human), P42336 [M1043I]; settings: compound 1.0 µM
[6] = molecular target: BMPR2 (human) (UniProt Q13873); settings: compound 1.0 µM
[7] = molecular target: OXSR1 (human) (UniProt O95747); settings: compound 1.0 µM
[8] = molecular target: CDK13 (human) (UniProt Q14004); settings: compound 1.0 µM
[9] = molecular target: CAMK2B (human) (UniProt Q13554); settings: compound 1.0 µM
[10] = molecular target: INSRR (human) (UniProt P14616); settings: compound 1.0 µM
[11] = molecular target: CSNK1G3 (human) (UniProt Q9Y6M4); settings: compound 1.0 µM
[12] = molecular target: JAK2 JH1 catalytic (human) (UniProt O60674); settings: compound 1.0 µM
[13] = molecular target: RIPK1 (human) (UniProt Q13546); settings: compound 1.0 µM
[14] = molecular target: SIK3 (human) (UniProt Q9Y2K2); settings: compound 1.0 µM
[15] = molecular target: SBK1 (human) (UniProt Q52WX2); settings: compound 1.0 µM
[16] = test system: PIK3CA (human), P42336 [H1047L]; settings: compound 1.0 µM
[17] = molecular target: RIPK2 (human) (UniProt O43353); settings: compound 1.0 µM
[18] = molecular target: TLK2 (human) (UniProt Q86UE8); settings: compound 1.0 µM
[19] = molecular target: MAP3K1 (human) (UniProt Q13233); settings: compound 1.0 µM
[20] = molecular target: PTK2 (human) (UniProt Q05397); settings: compound 1.0 µM
[21] = molecular target: STK4 (human) (UniProt Q13043); settings: compound 1.0 µM
[22] = molecular target: STK3 (human) (UniProt Q13188); settings: compound 1.0 µM
[23] = test system: LRRK2 (human), Q5S007 [G2019S]; settings: compound 1.0 µM
[24] = molecular target: MTOR (human) (UniProt P42345); settings: compound 1.0 µM
[25] = molecular target: MAPK7 (human) (UniProt Q13164); settings: compound 1.0 µM
[26] = molecular target: PIK3CG (human) (UniProt P48736); settings: compound 1.0 µM
[27] = molecular target: CHUK (human) (UniProt O15111); settings: compound 1.0 µM
[28] = molecular target: ROS1 (human) (UniProt P08922); settings: compound 1.0 µM
[29] = molecular target: GAK (human) (UniProt O14976); settings: compound 1.0 µM
[30] = molecular target: CDK5 (human) (UniProt Q00535); settings: compound 1.0 µM
[31] = molecular target: BMP2K (human) (UniProt Q9NSY1); settings: for kinase still bound, per cent of control: compound 1.0 µM
[32] = molecular target: IKBKE (human) (UniProt Q14164); settings: compound 1.0 µM
[33] = molecular target: PAK3 (human) (UniProt O75914); settings: compound 1.0 µM
[34] = molecular target: CAMK2A (human) (UniProt Q9UQM7); settings: compound 1.0 µM
[35] = molecular target: GSK3A (human) (UniProt P49840); settings: compound 1.0 µM
[36] = molecular target: CRK2 (P.falciparum) (UniProt P61075); settings: compound 1.0 µM
[37] = molecular target: PAK2 (human) (UniProt Q13177); settings: compound 1.0 µM
[38] = molecular target: MAP3K15 (human) (UniProt Q6ZN16); settings: compound 1.0 µM
[39] = molecular target: LIMK2 (human) (UniProt P53671); settings: compound 1.0 µM
[40] = molecular target: PTK6 (human) (UniProt Q13882); settings: compound 1.0 µM
[41] = molecular target: LRRK2 (human) (UniProt Q5S007); settings: compound 1.0 µM
[42] = molecular target: CDK15 (human) (UniProt Q96Q40); settings: compound 1.0 µM
[43] = molecular target: MAP2K3 (human) (UniProt P46734); settings: compound 1.0 µM

Chain of BMP2K (human) (Q9NSY1 whole entry, looked up): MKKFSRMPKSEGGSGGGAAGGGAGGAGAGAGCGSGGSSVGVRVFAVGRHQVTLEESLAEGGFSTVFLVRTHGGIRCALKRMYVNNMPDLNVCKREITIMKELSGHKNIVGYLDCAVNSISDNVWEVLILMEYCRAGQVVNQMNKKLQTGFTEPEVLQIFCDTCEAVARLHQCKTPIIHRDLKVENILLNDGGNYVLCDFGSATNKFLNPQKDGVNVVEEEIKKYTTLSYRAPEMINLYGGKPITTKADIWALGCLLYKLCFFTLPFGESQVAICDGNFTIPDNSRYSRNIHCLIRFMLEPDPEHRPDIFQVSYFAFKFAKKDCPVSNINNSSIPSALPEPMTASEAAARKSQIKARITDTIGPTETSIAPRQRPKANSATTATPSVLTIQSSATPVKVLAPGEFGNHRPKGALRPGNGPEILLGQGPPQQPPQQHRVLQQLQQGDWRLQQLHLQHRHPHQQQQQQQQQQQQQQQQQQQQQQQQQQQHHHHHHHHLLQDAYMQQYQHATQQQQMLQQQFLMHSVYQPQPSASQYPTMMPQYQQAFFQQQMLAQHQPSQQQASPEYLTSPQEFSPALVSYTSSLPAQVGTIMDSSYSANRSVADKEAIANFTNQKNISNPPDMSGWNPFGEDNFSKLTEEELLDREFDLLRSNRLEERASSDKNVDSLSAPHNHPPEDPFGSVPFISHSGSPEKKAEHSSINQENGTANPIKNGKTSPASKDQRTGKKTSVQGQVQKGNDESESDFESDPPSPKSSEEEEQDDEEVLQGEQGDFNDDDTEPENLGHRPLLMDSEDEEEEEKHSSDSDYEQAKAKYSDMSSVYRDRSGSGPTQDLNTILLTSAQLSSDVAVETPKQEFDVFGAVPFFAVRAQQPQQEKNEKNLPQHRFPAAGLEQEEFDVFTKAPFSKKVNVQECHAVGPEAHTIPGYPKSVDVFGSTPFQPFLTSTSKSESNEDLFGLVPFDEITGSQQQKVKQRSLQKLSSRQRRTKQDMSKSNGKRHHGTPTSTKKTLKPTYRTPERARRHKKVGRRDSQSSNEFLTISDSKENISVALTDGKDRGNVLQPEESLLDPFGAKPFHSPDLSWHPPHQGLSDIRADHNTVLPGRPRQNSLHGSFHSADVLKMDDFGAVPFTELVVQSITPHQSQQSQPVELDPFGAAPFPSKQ
Chain of CAMK2A (human) (Q9UQM7 whole entry, looked up): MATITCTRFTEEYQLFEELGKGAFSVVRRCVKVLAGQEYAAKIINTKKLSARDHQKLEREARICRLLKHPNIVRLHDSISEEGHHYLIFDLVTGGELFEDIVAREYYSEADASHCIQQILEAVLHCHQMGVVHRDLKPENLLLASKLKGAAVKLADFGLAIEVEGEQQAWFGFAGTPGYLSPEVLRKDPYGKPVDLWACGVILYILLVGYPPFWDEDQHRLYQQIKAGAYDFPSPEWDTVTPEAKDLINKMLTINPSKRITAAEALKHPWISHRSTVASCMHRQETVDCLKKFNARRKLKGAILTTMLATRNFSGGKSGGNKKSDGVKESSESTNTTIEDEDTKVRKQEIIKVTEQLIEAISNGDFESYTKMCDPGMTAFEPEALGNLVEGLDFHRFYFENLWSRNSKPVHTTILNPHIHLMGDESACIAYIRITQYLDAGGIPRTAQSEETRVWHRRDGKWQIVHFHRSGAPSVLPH
Chain of MAP3K15 (human) (Q6ZN16 whole entry, looked up): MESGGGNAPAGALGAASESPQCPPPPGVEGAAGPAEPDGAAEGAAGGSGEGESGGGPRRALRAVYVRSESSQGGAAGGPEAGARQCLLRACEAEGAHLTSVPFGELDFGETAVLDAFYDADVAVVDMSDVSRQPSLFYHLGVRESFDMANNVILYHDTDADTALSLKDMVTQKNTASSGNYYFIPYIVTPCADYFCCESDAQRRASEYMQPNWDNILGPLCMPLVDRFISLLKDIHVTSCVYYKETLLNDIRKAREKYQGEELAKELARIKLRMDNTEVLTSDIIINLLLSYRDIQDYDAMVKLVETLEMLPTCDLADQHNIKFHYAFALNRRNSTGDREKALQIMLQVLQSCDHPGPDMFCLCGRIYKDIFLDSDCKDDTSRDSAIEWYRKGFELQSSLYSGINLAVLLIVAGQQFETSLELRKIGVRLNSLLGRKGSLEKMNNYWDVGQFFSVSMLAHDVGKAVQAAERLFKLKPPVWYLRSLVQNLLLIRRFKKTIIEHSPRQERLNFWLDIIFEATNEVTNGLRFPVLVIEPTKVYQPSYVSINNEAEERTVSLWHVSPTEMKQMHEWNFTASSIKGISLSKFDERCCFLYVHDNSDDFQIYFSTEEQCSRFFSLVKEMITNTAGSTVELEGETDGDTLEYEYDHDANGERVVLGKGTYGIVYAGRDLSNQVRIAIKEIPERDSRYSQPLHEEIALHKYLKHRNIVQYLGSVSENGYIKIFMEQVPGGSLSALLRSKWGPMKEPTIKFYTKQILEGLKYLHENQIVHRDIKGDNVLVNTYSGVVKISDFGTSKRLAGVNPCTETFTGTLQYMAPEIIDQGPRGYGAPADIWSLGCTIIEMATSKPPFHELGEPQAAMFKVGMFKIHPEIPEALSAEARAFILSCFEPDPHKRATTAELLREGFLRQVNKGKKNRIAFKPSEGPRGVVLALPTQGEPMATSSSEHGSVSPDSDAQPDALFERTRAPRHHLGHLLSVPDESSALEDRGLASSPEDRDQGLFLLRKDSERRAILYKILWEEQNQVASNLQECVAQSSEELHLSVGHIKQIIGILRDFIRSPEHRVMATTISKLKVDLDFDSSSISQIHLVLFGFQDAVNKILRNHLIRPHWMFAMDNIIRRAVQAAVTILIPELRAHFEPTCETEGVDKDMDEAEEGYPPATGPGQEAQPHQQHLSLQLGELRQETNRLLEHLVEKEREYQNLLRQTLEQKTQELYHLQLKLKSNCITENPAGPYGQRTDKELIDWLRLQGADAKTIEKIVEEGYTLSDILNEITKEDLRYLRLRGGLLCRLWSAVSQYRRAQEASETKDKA
Chain of PTK2 (human) (Q05397 whole entry, looked up): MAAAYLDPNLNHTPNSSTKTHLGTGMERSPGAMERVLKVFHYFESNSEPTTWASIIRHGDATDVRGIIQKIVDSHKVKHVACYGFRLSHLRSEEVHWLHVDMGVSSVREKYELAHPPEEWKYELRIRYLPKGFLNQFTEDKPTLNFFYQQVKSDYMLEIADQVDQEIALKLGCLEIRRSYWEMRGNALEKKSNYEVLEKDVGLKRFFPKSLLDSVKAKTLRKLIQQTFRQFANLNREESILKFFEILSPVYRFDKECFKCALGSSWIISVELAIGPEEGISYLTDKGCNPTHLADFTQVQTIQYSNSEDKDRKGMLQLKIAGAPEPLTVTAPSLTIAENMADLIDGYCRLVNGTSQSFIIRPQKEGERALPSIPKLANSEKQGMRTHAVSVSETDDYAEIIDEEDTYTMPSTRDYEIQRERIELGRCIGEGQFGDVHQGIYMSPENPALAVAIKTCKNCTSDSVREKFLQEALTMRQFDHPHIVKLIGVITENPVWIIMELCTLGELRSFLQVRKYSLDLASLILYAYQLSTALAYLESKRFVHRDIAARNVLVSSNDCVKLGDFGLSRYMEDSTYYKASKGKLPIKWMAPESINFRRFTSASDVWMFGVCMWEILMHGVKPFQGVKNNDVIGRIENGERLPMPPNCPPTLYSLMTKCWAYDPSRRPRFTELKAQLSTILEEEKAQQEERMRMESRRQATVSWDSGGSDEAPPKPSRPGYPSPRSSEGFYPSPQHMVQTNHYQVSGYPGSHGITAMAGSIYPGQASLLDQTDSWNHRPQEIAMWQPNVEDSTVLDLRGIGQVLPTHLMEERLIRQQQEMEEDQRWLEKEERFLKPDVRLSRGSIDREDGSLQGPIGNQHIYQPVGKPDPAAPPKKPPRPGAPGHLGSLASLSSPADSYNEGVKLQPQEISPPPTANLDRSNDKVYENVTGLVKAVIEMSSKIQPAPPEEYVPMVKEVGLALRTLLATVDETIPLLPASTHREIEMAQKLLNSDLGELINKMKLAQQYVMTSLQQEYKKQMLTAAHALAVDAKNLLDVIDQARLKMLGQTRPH
Chain of MAPK7 (human) (Q13164 whole entry, looked up): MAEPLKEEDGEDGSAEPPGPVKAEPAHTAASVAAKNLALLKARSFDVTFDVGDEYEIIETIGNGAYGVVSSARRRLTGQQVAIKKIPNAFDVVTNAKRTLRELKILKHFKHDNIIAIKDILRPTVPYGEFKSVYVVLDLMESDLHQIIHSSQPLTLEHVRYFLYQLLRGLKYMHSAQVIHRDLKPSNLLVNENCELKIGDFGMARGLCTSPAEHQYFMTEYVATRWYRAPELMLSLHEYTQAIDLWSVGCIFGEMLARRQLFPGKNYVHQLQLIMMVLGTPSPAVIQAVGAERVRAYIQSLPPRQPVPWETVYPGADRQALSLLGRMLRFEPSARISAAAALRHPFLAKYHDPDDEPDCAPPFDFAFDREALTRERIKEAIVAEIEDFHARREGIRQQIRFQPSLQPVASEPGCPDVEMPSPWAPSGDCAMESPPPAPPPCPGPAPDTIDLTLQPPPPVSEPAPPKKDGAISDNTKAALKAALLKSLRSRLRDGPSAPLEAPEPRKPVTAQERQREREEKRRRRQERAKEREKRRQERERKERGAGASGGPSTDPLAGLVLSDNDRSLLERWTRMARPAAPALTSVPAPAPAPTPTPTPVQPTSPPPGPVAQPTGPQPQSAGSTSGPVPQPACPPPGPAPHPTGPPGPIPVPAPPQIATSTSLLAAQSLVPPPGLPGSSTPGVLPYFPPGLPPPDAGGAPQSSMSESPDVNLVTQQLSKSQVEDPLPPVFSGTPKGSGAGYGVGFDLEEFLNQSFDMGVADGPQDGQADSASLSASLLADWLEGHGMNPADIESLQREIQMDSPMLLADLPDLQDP

CN(C)C/C=C/C(=O)Nc1cccc(C(=O)Nc2ccc(Nc3nccc(/C(C#N)=C4\Nc5ccccc5S4)n3)cc2)c1
kinase still bound, per cent of control [1]: 100% | kinase still bound, per cent of control [2]: 100% | kinase still bound, per cent of control [3]: 100% | kinase still bound, per cent of control [4]: 100% | kinase still bound, per cent of control [5]: 100% | kinase still bound, per cent of control [6]: 50% | kinase still bound, per cent of control [7]: 100% | kinase still bound, per cent of control [8]: 100% | kinase still bound, per cent of control [9]: 100% | kinase still bound, per cent of control [10]: 87% | kinase still bound, per cent of control [11]: 37% | kinase still bound, per cent of control [12]: 100% | kinase still bound, per cent of control [13]: 85% | kinase still bound, per cent of control [14]: 100% | kinase still bound, per cent of control [15]: 100% | kinase still bound, per cent of control [16]: 100% | kinase still bound, per cent of control [17]: 100% | kinase still bound, per cent of control [18]: 100% | kinase still bound, per cent of control [19]: 100% | kinase still bound, per cent of control [20]: 100% | kinase still bound, per cent of control [21]: 100% | kinase still bound, per cent of control [22]: 91% | kinase still bound, per cent of control [23]: 100% | kinase still bound, per cent of control [24]: 100% | kinase still bound, per cent of control [25]: 100% | kinase still bound, per cent of control [26]: 51% | kinase still bound, per cent of control [27]: 100% | kinase still bound, per cent of control [28]: 58% | kinase still bound, per cent of control [29]: 79% | kinase still bound, per cent of control [30]: 100% | kinase still bound, per cent of control [31]: 51% | kinase still bound, per cent of control [32]: 100% | kinase still bound, per cent of control [33]: 84% | kinase still bound, per cent of control [34]: 100% | kinase still bound, per cent of control [35]: 59% | kinase still bound, per cent of control [36]: 100% | kinase still bound, per cent of control [37]: 100% | kinase still bound, per cent of control [38]: 100% | kinase still bound, per cent of control [39]: 97% | kinase still bound, per cent of control [40]: 100% | kinase still bound, per cent of control [41]: 57% | kinase still bound, per cent of control [42]: 100% | kinase still bound, per cent of control [43]: 88%

CN(C)C/C=C/C(=O)Nc1cccc(C(=O)Nc2ccc(Nc3nccc(-c4cccnc4)n3)cc2)c1
kinase still bound, per cent of control [1]: 100% | kinase still bound, per cent of control [2]: 67% | kinase still bound, per cent of control [3]: 98% | kinase still bound, per cent of control [4]: 87% | kinase still bound, per cent of control [5]: 74% | kinase still bound, per cent of control [6]: 64% | kinase still bound, per cent of control [7]: 96% | kinase still bound, per cent of control [8]: 43% | kinase still bound, per cent of control [9]: 82% | kinase still bound, per cent of control [10]: 100% | kinase still bound, per cent of control [11]: 66% | kinase still bound, per cent of control [12]: 50% | kinase still bound, per cent of control [13]: 18% | kinase still bound, per cent of control [14]: 100% | kinase still bound, per cent of control [15]: 66% | kinase still bound, per cent of control [16]: 100% | kinase still bound, per cent of control [17]: 55% | kinase still bound, per cent of control [18]: 92% | kinase still bound, per cent of control [19]: 85% | kinase still bound, per cent of control [20]: 100% | kinase still bound, per cent of control [21]: 45% | kinase still bound, per cent of control [22]: 87% | kinase still bound, per cent of control [23]: 51% | kinase still bound, per cent of control [24]: 100% | kinase still bound, per cent of control [25]: 100% | kinase still bound, per cent of control [26]: 21% | kinase still bound, per cent of control [27]: 53% | kinase still bound, per cent of control [28]: 100% | kinase still bound, per cent of control [29]: 33% | kinase still bound, per cent of control [30]: 89% | pKd [31]: 6.72 | kinase still bound, per cent of control [31]: 3.8% | kinase still bound, per cent of control [32]: 98% | kinase still bound, per cent of control [33]: 100% | kinase still bound, per cent of control [34]: 100% | kinase still bound, per cent of control [35]: 65% | kinase still bound, per cent of control [36]: 100% | kinase still bound, per cent of control [37]: 87% | kinase still bound, per cent of control [38]: 88% | kinase still bound, per cent of control [39]: 82% | kinase still bound, per cent of control [40]: 77% | kinase still bound, per cent of control [41]: 63% | kinase still bound, per cent of control [42]: 96% | kinase still bound, per cent of control [43]: 41%
